# Experimental data taken from EP2519511B1, “NOVEL PIPERINE DERIVATIVES AS GABA-A RECEPTORS MODULATORS” (Universität Wien, priority 2009, dated 2011).
# Where “and” joins values, the source holds several entries; their conditions need not be identical. Equal entries are not always repeated.
# Experiments:
# Male mice (C57BI/6N) [1] = test: Elevated Plus Maze test (EPM); assay type: in vivo; conditions: for total distance travelled in the EPM: compared to control
# Method: (§1) Piperine was isolated from Piper nigrum as described by Zaugg et al. (2010) and obtained from SigmaAldrich (Vienna, Austria), respectively. Piperine derivatives were synthesized as described above. Stock solutions (1mg/10 µl) were prepared in DMSO (Dimethyl Sulfoxide, Sigma, Austria).Working concentrations were adjusted by dilution with 0.9% sodiumchloride. pH was adjusted to 7.2-7.4 with NaOH. For better solubility 3% of Tween80 was added to all solutions. All solutions were freshly prepared every day prior to experiments. Care was taken for equal amounts of DMSO in the actein and control solutions.
# (§2) Male mice (C57BI/6N) were obtained from Charles River Laboratories (Germany). For breeding and maintenance mice were group housed with free access to food and water. Temperature was fixed to 23±1 °C and 60% humidity with a 12 h light-dark cycle (lights on 0700-1900 hours). Male mice at 3-6 months age were tested in all experiments. Every effort was taken to minimize the number of animals used (Khom et al., 2010).
# The animals's behavior was tested over 5 min on an elevated plus maze 1 m above ground consisting of two closed and two open arms, each 50x5 cm in size (Khom et al., 2010). The test instrument was built from gray PVC; the height of closed arm walls was 20 cm. Illumination was set to 180 lux. Animals were placed in the center, facing an open arm. Analysis of open and closed arm entries and time on open arm was automatically done with Video-Mot 2 equipment and software (Khom et al., 2010).
# Male mice (C57BI/6N) [2] = test: Open Field test (OF); assay type: in vivo; conditions: 30 mg/kg bodyweight; for effect on total ambulation / total distance: 30 min after i.p. injection, Fig. 11B
# Method: as §1, §2
# Ambulation was tested over 10 min in a 50x50 cm flexfield box equipped with infrared rearing detection. Illumination was set to 150 lux. Animals were video monitored and their explorative behavior was analyzed using the Actimot 2 equipment and software (TSE-systems, Bad Homburg, Germany). Arenas were subdivided into border (up to 8 cm from wall), center (20x20 cm, i.e. 16% of total area), and intermediate area according to the recommendations of EMPRESS (European Mouse Phenotyping Resource of Standardised Screens; http://empress.har.mrc.ac.uk).
# PTZ-induced seizures = test: Seizure threshold by PTZ tail-vein infusion; assay type: in vivo, mice; conditions: for seizure threshold: 30 min after i.p. injection; for effects on seizure threshold: PTZ 30 min after i.p. injection
# Method: as §1, §2
# Seizure threshold was determined by PTZ tail-vein infusion on freely moving animals at a rate of 100 µl/min ([…] PTZ in saline, pH 7.4). […] Animals were immediately killed by cervical displacement after the first generalized seizure. The seizure threshold dose was calculated from the infused volume in relation to body weight (Loacker et al. 2007). Piperine and piperine derivatives were applied at doses from 0.1 to 30 mg/kg 30 min before PTZ infusion. Control animals were pretreated with 10 % DMSO in saline containing 3 % Tween 80 (i. e. the solvent for all piperine doses).
# [3] = target: human TRPV1 receptor (hTRPV1) (Homo sapiens, UniProt Q8NER1); test: Activation of cation current through TRPV1 expressed in Xenopus oocytes; assay type: cell-based; conditions: 300 µM applied to oocytes, Fig. 4
# human TRPV1 receptor (hTRPV1), sequence (Q8NER1 whole entry): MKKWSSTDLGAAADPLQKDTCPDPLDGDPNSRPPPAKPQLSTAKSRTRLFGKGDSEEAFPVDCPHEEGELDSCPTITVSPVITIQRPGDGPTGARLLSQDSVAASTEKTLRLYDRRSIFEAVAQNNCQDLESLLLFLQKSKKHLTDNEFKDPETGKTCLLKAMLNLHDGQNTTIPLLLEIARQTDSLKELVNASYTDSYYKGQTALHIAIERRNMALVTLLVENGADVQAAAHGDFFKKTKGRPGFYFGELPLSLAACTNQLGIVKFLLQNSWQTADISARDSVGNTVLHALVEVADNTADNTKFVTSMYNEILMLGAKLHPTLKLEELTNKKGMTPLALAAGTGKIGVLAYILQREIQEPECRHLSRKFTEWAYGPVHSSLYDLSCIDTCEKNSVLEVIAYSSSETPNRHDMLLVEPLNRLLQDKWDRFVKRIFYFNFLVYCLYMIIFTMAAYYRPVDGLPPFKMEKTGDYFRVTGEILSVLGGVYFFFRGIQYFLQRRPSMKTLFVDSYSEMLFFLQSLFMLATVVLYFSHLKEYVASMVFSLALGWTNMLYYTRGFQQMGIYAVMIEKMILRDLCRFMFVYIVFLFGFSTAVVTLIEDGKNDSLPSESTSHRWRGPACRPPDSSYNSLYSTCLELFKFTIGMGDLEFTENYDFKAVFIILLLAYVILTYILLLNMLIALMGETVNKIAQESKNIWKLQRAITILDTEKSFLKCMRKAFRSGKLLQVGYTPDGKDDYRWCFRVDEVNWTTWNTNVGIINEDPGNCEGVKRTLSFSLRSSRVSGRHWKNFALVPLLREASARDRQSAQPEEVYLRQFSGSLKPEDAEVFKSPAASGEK
# Method: cRNA encoding for the human TRPV1 receptor (hTRPV1) was injected into Xenopus oocytes as previously described (Hu et al. 2004).
# [4] = target: GABAA channels composed of α1β2γ2 subunits (Homo sapiens, UniProt P14867+P18507+P47870); test: Modulation of IGABA, two-microelectrode voltage clamp in Xenopus laevis oocytes; assay type: cell-based; conditions: α1β2γ2, GABA EC5-10, Fig. 2
# GABAA channels composed of α1β2γ2 subunits, sequence (P14867 28-456): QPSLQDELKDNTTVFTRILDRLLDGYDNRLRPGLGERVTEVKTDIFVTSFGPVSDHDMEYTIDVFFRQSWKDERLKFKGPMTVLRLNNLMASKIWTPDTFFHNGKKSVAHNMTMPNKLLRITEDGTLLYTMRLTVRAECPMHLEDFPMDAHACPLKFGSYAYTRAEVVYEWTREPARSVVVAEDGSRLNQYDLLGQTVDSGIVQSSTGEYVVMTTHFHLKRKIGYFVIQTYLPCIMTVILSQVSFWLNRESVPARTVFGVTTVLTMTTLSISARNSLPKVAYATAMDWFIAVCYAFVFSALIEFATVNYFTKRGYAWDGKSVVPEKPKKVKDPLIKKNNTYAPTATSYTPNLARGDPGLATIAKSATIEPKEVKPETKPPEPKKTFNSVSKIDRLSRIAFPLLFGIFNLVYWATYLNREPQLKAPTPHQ
# GABAA channels composed of α1β2γ2 subunits, sequence (P47870 25-512 limits assumed): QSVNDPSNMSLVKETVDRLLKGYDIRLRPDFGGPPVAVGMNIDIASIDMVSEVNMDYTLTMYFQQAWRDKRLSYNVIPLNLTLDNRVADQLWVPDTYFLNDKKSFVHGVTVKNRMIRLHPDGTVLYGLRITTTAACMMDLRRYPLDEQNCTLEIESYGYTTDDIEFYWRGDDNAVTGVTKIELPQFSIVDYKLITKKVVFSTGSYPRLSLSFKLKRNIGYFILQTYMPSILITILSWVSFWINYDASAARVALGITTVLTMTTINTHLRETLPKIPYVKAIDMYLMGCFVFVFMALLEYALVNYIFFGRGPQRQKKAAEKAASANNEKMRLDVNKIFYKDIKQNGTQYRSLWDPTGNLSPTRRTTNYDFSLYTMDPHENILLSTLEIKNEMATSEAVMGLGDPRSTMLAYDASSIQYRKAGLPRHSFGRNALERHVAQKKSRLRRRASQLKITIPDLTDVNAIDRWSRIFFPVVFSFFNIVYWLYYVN
# GABAA channels composed of α1β2γ2 subunits, sequence (P18507 40-475): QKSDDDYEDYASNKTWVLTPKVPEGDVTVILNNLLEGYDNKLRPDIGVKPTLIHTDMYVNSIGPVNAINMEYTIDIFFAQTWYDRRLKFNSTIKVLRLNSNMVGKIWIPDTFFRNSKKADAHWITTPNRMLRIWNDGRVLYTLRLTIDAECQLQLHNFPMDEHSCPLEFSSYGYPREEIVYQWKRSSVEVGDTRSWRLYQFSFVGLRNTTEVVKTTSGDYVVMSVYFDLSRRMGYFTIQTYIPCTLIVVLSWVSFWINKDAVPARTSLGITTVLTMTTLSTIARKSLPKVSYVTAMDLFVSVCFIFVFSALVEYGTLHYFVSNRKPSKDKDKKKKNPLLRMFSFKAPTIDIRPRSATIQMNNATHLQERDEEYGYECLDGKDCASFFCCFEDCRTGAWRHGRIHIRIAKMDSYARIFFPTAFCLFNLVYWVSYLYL
# Method: The following paragraphs describe the preparation of oocytes expressing the specific GABAA receptor subtype composed of α1, β2 and γ2 subunits and the subsequent analysis of the concentration-response curves of the stimulation of chloride currents through GABAA receptors (IGABA).
# Preparation of stage V-VI oocytes from Xenopus laevis, synthesis of capped off run-off poly(A^+) cRNA transcripts from linearized cDNA templates (pCMV vector) was performed as described (Khom et al. 2006). Briefly, female Xenopus laevis (NASCO, USA) were anaesthetised by exposing them for 15 minutes to a 0.2 % solution of MS-222 (methane sulfonate salt of 3-aminobenzoic acid ethyl ester; Sandoz) before surgically removing parts of the ovaries. Follicle membranes from isolated oocytes were enzymatically digested with 2 mg/ml collagenase (Type 1A, Sigma). One day after isolation, the oocytes were injected with about […] of DEPC- treated water (diethyl pyrocarbonate, Sigma, Germany) containing the different cRNAs (encoding for α1, β2 and γ2 subunits) at a concentration of approximately 300 - 3000 pg/µl/subunit. The amount of cRNA was determined by means of a NanoDrop ND-1000 (Kiskerbiotech, Steinfurt, Germany).
# Oocytes were stored at 18°C in ND96 solution (Methfessel et al., 1986). […]
# Stimulation of chloride currents by modulators of the GABAA receptor was measured at a GABA concentration eliciting between 5 and 10 % of the maximal current amplitude (EC5-10). The EC5-10 was determined at the beginning of each experiment.
# Enhancement of the chloride current was defined as (I(GABA+Comp)/IGABA) - 1, where I(GABA+Comp) is the current response in the presence of a given compound (piperine or piperin derivatives) and IGABA is the control GABA current. […] Statistical significance was calculated using paired Student t-test with a confidence interval of p < 0.05 (Khom et al., 2007). […]
SMILES,"time spent on the open arms (OA) in % of the total time (Male mice (C57BI/6N) [1]; 0.3 mg/kg bodyweight, i.p.)",cation current through TRPV1 receptors [3],modulation of IGABA [4],effect on total ambulation / total distance (Male mice (C57BI/6N) [2]),effects on seizure threshold (PTZ-induced seizures; Fig. 12),also measured
"O=C(/C=C/C=C/c1ccc2c(c1)OCO2)N1CCCCC1 [piperine, Piperine]",42.7 ± 4.4%,,,,,"time spent on the open arms (OA) in % of the total time (Male mice (C57BI/6N) [1]; 0.1 mg/kg bodyweight, 30 min after i.p. injection): no significant effect; time spent on the open arms (OA) in % of the total time (Male mice (C57BI/6N) [1]; 1 mg/kg bodyweight, i.p.): 45.6 ± 6.6%; reduction of ambulation compared to control littermates (Male mice (C57BI/6N) [2]; i.p.): more than 50%; traveled distance (total ambulation) (Male mice (C57BI/6N) [2]; i.p.): 16.5 ±3.8 m; seizure threshold (PTZ-induced seizures; 3 mg/kg): 46.2 ± 5.44; seizure threshold (PTZ-induced seizures; 10 mg/kg): 48.7 ± 2.13; seizure threshold (PTZ-induced seizures; 30 mg/kg): 30.3 ± 3.43"
CCCCN(CCCC)C(=O)/C=C/C=C/c1cc(OC)c(OC)c(OC)c1 [SCT-68],,no current was induced,,,,
CC(C)N(C(=O)/C=C/C=C/c1ccc2c(c1)OCO2)C(C)C [SCT-46],,no current was induced,,,,
CCCN(CCC)C(=O)/C=C/C=C/c1ccc2c(c1)OCO2 [SCT-64],41.6 ± 3.2% and 44.2 ± 3.3%,no current was induced,positive allosteric modulatory effect by enhancing IGABA,reduced the total distance,particularly active at low concentrations,"time spent on the open arms (OA) in % of the total time (Male mice (C57BI/6N) [1]; 10 mg/kg bodyweight, i.p.): 59.6 ± 4.9%; total distance travelled in the EPM (Male mice (C57BI/6N) [1]; i.p.): reducing slightly the total ambulation at doses ≥1 mg/kg bodyweight; cation current through TRPV1 receptors ([3]; listed as SCT64): none of the derivatives SCT29, SCT64 or SCT66 induced cation currents"
CCN(CC)C(=O)/C=C/C=C/c1ccc2c(c1)OCO2 [SCT-54],,,,no effect on ambulation,particularly active at low concentrations,
CC(C)CN(CC(C)C)C(=O)/C=C/C=C/c1ccc2c(c1)OCO2 [SCT-66],40.8 ± 3.2% and 38.1 ± 5.1%,no current was induced,positive allosteric modulatory effect by enhancing IGABA,reduced the total distance,,"time spent on the open arms (OA) in % of the total time (Male mice (C57BI/6N) [1]; 3 mg/kg bodyweight, i.p.): 46.5 ± 6.6%; total distance travelled in the EPM (Male mice (C57BI/6N) [1]; i.p.): no significant effect on ambulation; cation current through TRPV1 receptors ([3]; listed as SCT66): none of the derivatives SCT29, SCT64 or SCT66 induced cation currents; minimal effective dose (PTZ-induced seizures; Mus musculus, ip, 0.5 h, i.p., Fig. 12, read-out: doses of first significant effects on seizure threshold): ≥ 10 mg/kg"
CCCCN(CCCC)C(=O)/C=C/C=C/c1ccc2c(c1)OCO2 [SCT-29],not statistically significant,no current was induced,positive allosteric modulatory effect by enhancing IGABA,no effect on ambulation,particularly active at low concentrations,"cation current through TRPV1 receptors ([3]; listed as SCT29): none of the derivatives SCT29, SCT64 or SCT66 induced cation currents"
